Data reported in patent US8557796B2, “Substituted 1-oxa-2,8-diaza-spiro [4,5] dec-2-ene derivatives and related treatment methods” (Gruenenthal GmbH, priority 2001, dated 2013).

Molecular target: T1, 5HT-uptake (Rattus norvegicus, UniProt P31652)
T1 construct: synaptosomes from rat brain regions were freshly isolated; from tissue; host or cells: P2 synaptosome fraction from rat brain regions
Experiment: Serotonin uptake inhibition (5HT uptake) in synaptosomes
Format: biochemical
Conditions: rat brain synaptosomes
From the text: Tests on Serotonin Uptake (5HT Uptake Inhibition)

T1 sequence (P31652 whole entry): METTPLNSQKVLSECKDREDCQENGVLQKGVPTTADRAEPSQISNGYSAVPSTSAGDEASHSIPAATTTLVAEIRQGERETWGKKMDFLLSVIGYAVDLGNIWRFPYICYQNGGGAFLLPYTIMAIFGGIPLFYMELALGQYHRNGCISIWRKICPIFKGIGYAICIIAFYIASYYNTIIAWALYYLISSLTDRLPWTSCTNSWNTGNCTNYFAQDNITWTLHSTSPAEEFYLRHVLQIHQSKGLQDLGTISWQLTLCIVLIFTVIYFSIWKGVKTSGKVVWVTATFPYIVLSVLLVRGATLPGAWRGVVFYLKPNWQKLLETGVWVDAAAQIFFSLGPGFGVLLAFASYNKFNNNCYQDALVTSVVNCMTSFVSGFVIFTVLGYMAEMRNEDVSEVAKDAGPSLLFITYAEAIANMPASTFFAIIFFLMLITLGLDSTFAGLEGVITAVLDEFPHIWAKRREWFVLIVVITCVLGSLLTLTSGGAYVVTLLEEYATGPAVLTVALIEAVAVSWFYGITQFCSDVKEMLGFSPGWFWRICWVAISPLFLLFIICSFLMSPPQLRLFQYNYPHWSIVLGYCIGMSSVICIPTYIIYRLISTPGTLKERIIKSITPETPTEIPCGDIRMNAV

Row | SMILES | 5HT-uptake, 10 μM, % inhibition | inhibition at 10 µM
1 | COC(=O)C(Cc1c[nH]c2ccccc12)NC(=O)C1=NOC2(CCN(S(=O)(=O)c3ccc(OC(F)(F)F)cc3)CC2)C1 (stereo not drawn) [Example 1, 3-(1H-indo1-3-yl)-2-{[8-(4-trifluoromethoxy-benzene-sulphonyl)-1-oxa-2,8-diaza-spiro[4,5]dec-2-ene-3-carbonyl]-amino}-propionic acid methyl ester] | 47% | 
2 | CCOP(=O)(Cc1ccc(NC(=O)C2=NOC3(CCN(S(=O)(=O)Cc4ccccc4)CC3)C2)cc1)OCC [Example 2] | 55% | 
3 | O=C(C1=NOC2(CCN(S(=O)(=O)Cc3ccccc3)CC2)C1)N1CCN(Cc2ccc3ccccc3c2)CC1 [Example 6, (4-naphthalen-2-ylmethyl-piperazin-l-yl)-(8-phenylmethane-sulphonyl-1-oxa-2,8 diaza-spiro[4,5]dec-2-en-3-yl)-methanone] | 54% | 
4 | CCN(CC)c1ccc(C(=O)NNC(=O)C2=NOC3(CCN(S(=O)(=O)c4cccs4)CC3)C2)cc1 [Example 10, 4-diethylamino-benzoic acid N′-[8-(thiophene-2-sulphonyl)-1-oxa-2,8-diaza-spiro[4,5]dec-2-ene-3-carbonyl]-hydrazide] |  | 40%
5 | CN(CCc1c[nH]c2ccccc12)C(=O)C1=NOC2(CCN(S(=O)(=O)c3ccc(OC(F)(F)F)cc3)CC2)C1 [Example 16, 8-(4-trifluoromethoxy-benzenesulphonyl)-1-oxa-2,8-diaza-spiro[4,5]dec-2-ene-3 carboxylic acid [2-(1 H-indo1-3-yl)-ethyl]-methyl-amide] | 60% | 
6 | CC(=O)NCCNC(=O)C1=NOC2(CCN(S(=O)(=O)c3cc(F)ccc3C)CC2)C1 [Example 17, 8-(5-fluoro-2-methyl-benzenesulphonyl)-1-oxa-2,8-diaza-spiro[4,5]dec-2-ene-3 carboxylic acid (2-acetylamino-ethyl)-amide] |  | 46%
7 | Cc1ccc([N+](=O)[O-])cc1S(=O)(=O)N1CCC2(CC1)CC(C(=O)NCCN(C)C)=NO2 [Example 19, 8-(2-methyl-5-nitro-benzenesulphonyl)-1-oxa-2,8-diaza-spiro[4,5]dec-2-ene-3 carboxylic acid (2-dimethylamino-ethyl)-amide] |  | 80%
8 | O=C(NCc1cccc(F)c1)C1=NOC2(CCN(S(=O)(=O)c3cccs3)CC2)C1 [Example 24, 8-(thiophene-2-sulphonyl)-1-oxa-2,8-diaza-spiro[4,5]dec-2-ene-3-carboxylic acid 3-fluorobenzylamide] |  | 40%
9 | Cc1ccc(S(=O)(=O)N2CCC3(CC2)CC(C(=O)N2CCN(C(=O)Cc4ccccc4)CC2)=NO3)cc1 [Example 25, 2-phenyl-1-{4-[8-(toluene-4-sulphonyl)-1-oxa-2,8-diaza-spiro[4,5]dec-2-ene-3 carbonyl]-piperazin-1-yl)-ethanone] |  | 51%
10 | O=C(NC1CCN(Cc2ccc(C(F)(F)F)cc2)C1)C1=NOC2(CCN(S(=O)(=O)c3cccs3)CC2)C1 (stereo not drawn) [Example 26, 8-(thiophene-2-sulphonyl)-1-oxa-2,8-diaza-spiro[4,5]dec-2-ene-3-carboxylic acid [1-(4-trifluoromethyl-benzyl)-pyrrolidin-3-yl]-amide] |  | 65%
11 | Cc1ccc(S(=O)(=O)N2CCC3(CC2)CC(C(=O)N(CCC#N)Cc2ccccc2)=NO3)cc1 [Example 28, 8-(toluene-4-sulphonyl)-1-oxa-2,8-diaza-spiro[4,5]dec-2-ene-3-carboxylic acid benzyl-(2-cyano-ethyl)-amide] |  | 43%
12 | O=C(C1=NOC2(CCN(S(=O)(=O)c3cc(Cl)ccc3Cl)CC2)C1)N1CCN(c2ncnc3sccc23)CC1 [Example 29] | 42% | 
13 | O=C(C1=NOC2(CCN(S(=O)(=O)c3cccc(C(F)(F)F)c3)CC2)C1)N1CCN(Cc2ccc3ccccc3c2)CC1 [Example 35, (4-naphthalen-2-ylmethyl-piperazin-l-yl)-[8-(3-trifluoromethyl-benzenesulphonyl)-1-oxa-2,8-diaza-spiro[4,5]dec-2-en-3-yl]-methanone] | 44% | 

Molecular target: T2, NA transporter (Rattus norvegicus, UniProt Q9WTR4)
T2 construct: synaptosomes from rat brain regions were freshly isolated; from tissue; host or cells: P2 synaptosome fraction from hypothalamus of male rat brain
T2 sequence (Q9WTR4 1-597): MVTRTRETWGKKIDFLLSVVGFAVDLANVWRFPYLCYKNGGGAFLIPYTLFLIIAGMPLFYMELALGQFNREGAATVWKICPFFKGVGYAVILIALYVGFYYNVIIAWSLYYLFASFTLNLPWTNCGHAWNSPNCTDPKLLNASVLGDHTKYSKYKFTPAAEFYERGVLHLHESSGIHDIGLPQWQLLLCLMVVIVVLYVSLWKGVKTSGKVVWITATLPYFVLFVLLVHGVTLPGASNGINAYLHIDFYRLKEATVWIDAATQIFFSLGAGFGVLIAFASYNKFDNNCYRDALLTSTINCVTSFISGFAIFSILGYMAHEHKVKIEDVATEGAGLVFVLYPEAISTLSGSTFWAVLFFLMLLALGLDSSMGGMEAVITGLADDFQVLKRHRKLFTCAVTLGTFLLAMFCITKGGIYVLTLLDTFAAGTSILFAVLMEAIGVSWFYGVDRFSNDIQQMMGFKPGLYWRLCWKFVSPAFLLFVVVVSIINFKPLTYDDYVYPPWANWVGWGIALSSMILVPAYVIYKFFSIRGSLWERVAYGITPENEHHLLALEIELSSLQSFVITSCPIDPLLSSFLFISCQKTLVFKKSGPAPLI
Experiment: Noradrenalin uptake inhibition (NA-uptake) in synaptosomes
Format: biochemical
Conditions: rat hypothalamus synaptosomes
From the text: Tests on Noradrenalin Uptake Inhibition (NA-Uptake Inhibition)
In order to be able to carry out these in vitro studies, synaptosomes from rat brain regions were freshly isolated.

Row | SMILES | inhibition at 10 µM | NA-uptake, 10 μM, % inhibition
14 | Cc1onc(-c2c(Cl)cccc2Cl)c1C(=O)N1CCC2(CC1)CC(C(=O)NCc1cccs1)=NO2 [Example 197, 8-[3-(2,6-dichloro-phenyl)-5-methyl-isoxazole-4-carbonyl]-1-oxa-2,8-diaza-spiro[4,5]dec-2-ene-3-carboxylic acid (thiophen-2-ylmethyl)-amide] | 41% | 
15 | CC(NC(=O)C1=NOC2(CCN(S(=O)(=O)c3ccc(F)cc3)CC2)C1)C(=O)Nc1ccc2ccccc2c1 (stereo not drawn) [Example 198, 8-(4-fluoro-benzenesulphonyl)-1-oxa-2,8-diaza-spiro[4,5]dec-2-ene-3-carboxylic acid [1-(naphthalen-2-ylcarbamoyl)ethyl]-amide] | 52% | 
16 | O=C(NC1CCCC1OCc1ccccc1)C1=NOC2(CCN(S(=O)(=O)c3ccc(F)cc3)CC2)C1 (stereo not drawn) [Example 199] |  | 78%
17 | COC(=O)C(Cc1ccc(Cl)cc1)NC(=O)C1=NOC2(CCN(S(=O)(=O)c3ccc(OC)cc3)CC2)C1 (stereo not drawn) [Example 200] |  | 43%
18 | O=C(NC1CCCC1OCc1ccccc1)C1=NOC2(CCN(S(=O)(=O)c3cccc(C(F)(F)F)c3)CC2)C1 (stereo not drawn) [Example 201, 8-(3-trifluoromethyl-benzenesulphonyl)-1-oxa-2,8-diaza-spiro[4,5]dec-2-ene-3-carboxylic acid (2-benzyloxy-cyclopentyl)-amide] | 58% | 
19 | O=C(NCc1ccccc1)C1=NOC2(CCN(C(=O)c3cccnc3Oc3ccccc3)CC2)C1 [Example 203, 8-(2-phenoxy-pyridine-3-carbonyl)-1-oxa-2,8-diaza-spiro[4,5]dec-2-ene-3-carboxylic acid benzylamide] | 58% | 
20 | O=C(NCC1CC1)C1=NOC2(CCN(C(=O)c3ccc4ccccc4c3)CC2)C1 [Example 204, 8-(naphthalene-2-carbonyl)-1-oxa-2,8-diaza-spiro[4,5]dec-2-ene-3-carboxylic acid cyclopropylmethyl-amide] | 48% | 
21 | O=C(NCc1ccccc1)C1=NOC2(CCN(C(=O)c3ccc(F)c(Cl)c3)CC2)C1 [Example 205, 8-(3-chloro-4-fluorobenzoyl)-1-oxa-2,8-diaza-spiro[4,5]dec-2-ene-3-carboxylic acid benzylamide] | 46% | 
22 | O=C(NCc1ccccc1F)C1=NOC2(CCN(S(=O)(=O)c3ccc(F)cc3)CC2)C1 [Example 207, 8-(4-fluoro-benzenesulphonyl)-1-oxa-2,8-diaza-spiro[4,5]dec-2-ene-3-carboxylic acid 2 fluorobenzylamide] | 50% | 
23 | O=C(NCc1cccs1)C1=NOC2(CCN(C(=O)c3cccc(Cl)c3)CC2)C1 [Example 208] |  | 52%
24 | O=C(C1=NOC2(CCN(S(=O)(=O)c3cc(Cl)ccc3Cl)CC2)C1)N1CCN(Cc2ccccc2)CC1 [Example 209, (4-benzyl-piperazin-l-yl)-[8-(2,5-dichloro-benzenesulphonyl)-1-oxa-2,8-diaza-spiro[4,5]dec-2-en-3-yl]-methanone] |  | 51%
25 | O=C(NCc1ccccc1)C1=NOC2(CCN(S(=O)(=O)c3cccc(Cl)c3)CC2)C1 [Example 210, 8-(3-chloro-benzenesulphonyl)-1-oxa-2,8-diaza-spiro[4,5]dec-2-ene-3-carboxylic acid benzylamide] | 42% | 
26 | O=C(C1=NOC2(CCN(S(=O)(=O)c3cccc(C(F)(F)F)c3)CC2)C1)N1CCC(Cc2ccccc2)CC1 [Example 211, (4-benzyl-piperidin-l-yl)-[8-(3-trifluoromethyl-benzene-sulphonyl)-1-oxa-2,8-diaza-spiro[4,5]dec-2-en-3-yl]-methanone] |  | 49%
27 | O=C(NCc1ccccc1)C1=NOC2(CCN(C(=O)c3ccc(Br)cc3)CC2)C1 [Example 212, 8-(4-bromo-benzoyl)-1-oxa-2,8-diaza-spiro[4,5]dec-2-ene-3-carboxylic acid benzylamide] | 55% | 
28 | CC(NC(=O)C1=NOC2(CCN(S(=O)(=O)c3ccc(F)cc3)CC2)C1)c1ccc([N+](=O)[O-])cc1 (stereo not drawn) [Example 213, 8-(4-fluoro-benzenesulphonyl)-1-oxa-2,8-diaza-spiro[4,5]dec-2-ene-3-carboxylic acid [1-(4-nitro-phenyl)-ethyl]-amide] | 46% | 
29 | CC(C)CC(NC(=O)C1=NOC2(CCN(S(=O)(=O)c3cccc(C(F)(F)F)c3)CC2)C1)C(=O)OC(C)(C)C (stereo not drawn) [Example 214, 4-methyl-2-{[8-(3-trifluoromethyl-benzenesulphonyl)-1-oxa-2,8-diaza-spiro[4,5]dec-2-ene-3-carbonyl]-amino}-pentanoic acid tert-butyl ester] | 45% | 
30 | O=C(C1=NOC2(CCN(S(=O)(=O)Cc3ccccc3)CC2)C1)N1CC=C(c2ccc(F)cc2)CC1 [Example 215, [4-(4-fluoro-phenyl)-3,6-dihydro-2H-pyridin-1-yl]-(8-phenylmethanesulphonyl-1-oxa-2,8-diaza-spiro[4,5]dec-2-en-3-yl)-methanone] | 42% | 
31 | CCN(CCNC(=O)C1=NOC2(CCN(S(=O)(=O)N(C)C)CC2)C1)c1cccc(C)c1 [Example 216, 8-dimethylsulphamoyl-1-oxa-2,8-diaza-spiro[4,5]dec-2-ene-3-carboxylic acid [2-(ethyl-m-tolyl-amino)-ethyl]amide] | 40% | 
32 | Cc1cc(C(=O)N2CCC3(CC2)CC(C(=O)NCc2ccccc2)=NO3)c(C)o1 [Example 217, 8-(2,5-dimethyl-furan-3-carbonyl)-1-oxa-2,8-diaza-spiro[4,5]dec-2-ene-3-carboxylic acid benzylamide] | 40% | 
33 | O=C(C1=NOC2(CCN(S(=O)(=O)c3ccc(F)cc3)CC2)C1)N1CCN(C2CCCCCC2)CC1 [Example 218] |  | 44%
